From PMC12797238 (ACS Infectious Diseases, 2025)

Columns and labels:
Human BJ Fibroblast = assay: Drug sensitivity assay, dose–response curves, human BJ fibroblasts; assay type: cell-based; settings: mean, n ≥ 3
Description: (§1) Human fibroblasts, T. brucei, T. gambiense, P. falciparum, L. mexicana, and B. divergens were cultivated as described previously, and dose–response curves were obtained by their cultivation on 96 well plates in a 2-fold seriel dilution of the appropriate drug.

[1] = system: Trypanosoma brucei bloodstream forms; assay: Drug sensitivity assay, dose–response curves, T. brucei; assay type: cell-based; settings: for EC50: bloodstream forms, mean, n ≥ 3; for T. brucei selectivity: relative to human BJ fibroblast EC50
Description: as §1

[2] = system: Toxoplasma tachyzoites mitochondrion; assay: Toxoplasma mitochondrial membrane potential (MitoTracker, cytometry and microscopy); assay type: cell-based, Toxoplasma gondii; settings: 24 h at 3× EC50; for Mitotracker staining of T. gondii, microscopic observation: FCCP as uncoupler control
Experimental: We used the MitoTracker Deep Red FM fluorescent probe (Invitrogen) to assess the mitochondrial membrane potential in Toxoplasma tachyzoites. […] After another 24 h of culture at 37 °C and 5% CO2, Mitotracker labeling was performed as described in the protocol provided by the manufacturer, with a 45 min incubation at 37 °C and 5% CO2 of the reconstituted dye diluted to 1/1000 in culture medium. Parasites were then fixed for 30 min in 4% (w/v) PFA (diluted in PBS), washed twice in PBS, scraped, syringed (with a 25 G needle), filtered on a 40 μm membrane, and resuspended in 1 mL of PBS. Parasites were then analyzed with an Aurora spectral cytometer (Cytek), using a 633 nm excitation laser and a 665 nm detector. 10,000 events were recorded. Mean fluorescence was plotted against vehicle-treated culture parasites using Prism 8.0 (GraphPad Software), and statistical significance was determined using one-way ANOVA with Tukey’s multiple-comparison test. The experiment was performed for three biologically independent replicates. For the membrane depolarization control, parasites were treated with 10 μM FCCP for 30 min prior to and during incubation with the Mitotracker dye.
Intracellular parasites and the host cell monolayer were then fixed 24 h later with 4% (w/v) PFA (diluted in PBS) for 20 min, and after fixation, cells were permeabilized with 0.3% (v/v) Triton X-100 (diluted in PBS) for 10 min. Costaining with the anti-F1β ATPase mitochondrial marker was performed as described below.

[3] = system: Plasmodium falciparum intracellular stages; assay: Drug sensitivity assay, dose–response curves, P. falciparum; assay type: cell-based
Description: as §1

[4] = system: Toxoplasma gondii tachyzoites (RH strain), intracellular stages; assay: T. gondii lytic cycle plaque assay in HFF monolayers; assay type: cell-based
Experimental: T. gondii tachyzoites of the RH strain were routinely maintained through passages in a human foreskin fibroblasts (HFFs) monolayer (ATCC CRL-1634). HFFs and parasites were cultured in standard Dulbecco’s Modified Eagle Medium (DMEM), supplemented with 5% decomplemented fetal bovine serum (FBS), 2 mM L-glutamine, 100 U/mL penicillin, and 100 μg/mL streptomycin (Gibco) at 37 °C and with 5% CO2 in an incubator with a controlled atmosphere.
The lytic cycle of T. gondii tachyzoites was assessed by a plaque assay as described previously. Briefly, tachyzoites were allowed to invade monolayers of HFFs for 3 h before addition of the compounds or the DMSO vehicle and were subsequently cultivated for 7 days at 37 °C and 5% CO2. They were then fixed with 4% (w/v) paraformaldehyde (PFA, diluted in phosphate-buffered saline (PBS)) for 20 min and stained with a 0.1% crystal violet solution (V5265, Sigma-Aldrich), washed, and air-dried before imaging under an Olympus MVX10 microscope.
Figure S1. EC50 determination of selected compounds in Toxoplasma.
B) EC50 curves based on plaque
area measured from three independent plaque assays. Data are mean ± standard deviation. C)
vacuoles were counted for each con dition. Values represented are mean ± standard deviation of […]

[5] = system: Trypanosoma gambiense bloodstream forms; assay: Drug sensitivity assay, dose–response curves, T. gambiense; assay type: cell-based
Description: as §1

[6] = system: T. brucei 427 bloodstream form mitochondria; assay: Mitochondrial membrane potential in T. brucei (TMRE, flow cytometry); assay type: cell-based, Trypanosoma brucei; settings: 24 h at 3× EC50
Experimental: The mitochondrial membrane potential of T. brucei 427 bloodstream form was assessed using the fluorescent probe TMRE (Thermo Fisher Scientific) as described in ref . […] Untreated cells and cells preincubated with a 50 μM CCCP uncoupler for 30 min were used as negative and positive controls, respectively. Approximately 1 × 10^6 cells were incubated with 60 nM TMRE for 30 min, washed 1× with sterile PBS, and 5,000 events were measured on a Guava EasyCyte 8HT flow cytometer (Luminex) using a 488 nm excitation laser and a 583/26 nm detector. Median fluorescence was plotted against an untreated culture using Prism 8.0 (GraphPad Software), and statistical significance was determined using RM one-way ANOVA with Geisser–Greenhouse correction. The experiment was performed in three biologically independent replicates.

[7] = system: Leishmania mexicana axenic amastigotes; assay: Drug sensitivity assay, dose–response curves, L. mexicana; assay type: cell-based
Description: as §1

T. gondii mitochondrion = assay: Toxoplasma immunofluorescence assay of organelle morphology; assay type: cell-based, Toxoplasma gondii; settings: 24 h at 3× EC50; DFX at 60 nM
Experimental: For IFAs to assess organelle morphology, coverslips seeded with HFFs were infected with T. gondii tachyzoites, and 3 h later, compounds were added (at 3 times their respective EC50). Intracellular parasites and host cell monolayers were then fixed 24 h later with 4% (w/v) PFA (diluted in PBS) for 20 min. After fixation, cells were permeabilized with 0.3% (v/v) Triton X-100 (diluted in PBS) for 10 min. Coverslips were blocked with 2% (w/v) bovine serum albumin (BSA) for 1 h prior to immunolabeling with a primary antibody for 1 h. After 3 washes in PBS, a corresponding secondary antibody was incubated for 1 h. Coverslips were then incubated with 1 μg/mL of Hoechst stain for 5 min before 3 washes in PBS and, finally, mounted using Immu-Mount (Thermo Fisher) onto microscope slides. Primary antibodies used were prepared in 2% BSA (diluted in PBS) and used at the following concentrations: the apicoplast was stained using rabbit anti-PDH-E2 (1:500), the mitochondrion was stained using mouse anti-F1β ATPase (1:1000, gift of P. Bradley). Anti-mouse and anti-rabbit secondary antibodies were all from Thermo Fisher and were diluted at 1:4000. Image acquisition was performed with a Zeiss Axio Observer inverted microscope equipped with a Zeiss Axiocam 712 camera and 63×/1.4 or 100×/1.4 Oil Plan Achromat objectives. Images were processed with Zen Blue v3.6 software (Zeiss). Z-stack acquisitions were processed by a maximum-intensity orthogonal projection. Adjustments of brightness and contrast were applied uniformly, and paired images were acquired with the same exposure time. Quantifications of mitochondrial morphology were performed by microscopic observation of a series of at least 100 parasites, and data from three independent biological replicates was acquired and plotted using Prism 8.0 (GraphPad Software). Statistical significance was determined using one-way ANOVA with Tukey’s multiple-comparison test.

[8] = system: Babesia divergens intracellular stages; assay: Drug sensitivity assay, dose–response curves, B. divergens; assay type: cell-based
Description: as §1

[9] = intracellular stages, mean, n ≥ 3

Compound | EC50 (Human BJ Fibroblast) [nM] | EC50 [1] [nM] | T. brucei selectivity [1] | further results
(tributylphosphine-C10)2-DFO [compound 4] | 2840 | 281 | 10 | 
N#CC(C#N)=NNc1ccc(OC(F)(F)F)cc1 [FCCP, carbonyl cyanide p-trifluoromethoxyphenylhydrazone, reference compound] |  |  |  | Mitotracker staining of T. gondii, microscopic observation [2]: diffuse Mitotracker signal
(tricylohexylphosphine-C10)2-DFO [compound 5] | 3080 | 52 | 59 | 
(dimethylphenylphosphine-C10)2-DFO [compound 9] | > 25000 | 1150 |  | decrease in antiparasitic activity compared with compound 2 ([1]; T. brucei): ~20 fold
CC(=O)N(O)CCCCCNC(=O)CCC(=O)N(O)CCCCCNC(=O)CCC(=O)N(O)CCCCCN(CCCCCCCCCC[P+](c1ccccc1)(c1ccccc1)c1ccccc1)CCCCCCCCCC[P+](c1ccccc1)(c1ccccc1)c1ccccc1.[Cl-].[Cl-] [compound 2, (triphenylphosphine-C10)2-DFO] | 8910 | 56.9 | 156 | 
O=C(NCCCCCC[P+](c1ccccc1)(c1ccccc1)c1ccccc1)c1ccc(-n2nc(-c3ccccc3O)nc2-c2ccccc2O)cc1.[Cl-] [compound 13, triphenylphosphine-C6-DFX] | 15000 | 49.8 | 302 | 
CC(=O)N(O)CCCCCNC(=O)CCC(=O)N(O)CCCCCNC(=O)CCC(=O)N(O)CCCCCN [compound 16, deferoxamine, reference compound] | > 25000 |  |  | EC50 ([1]; Trypanosoma brucei): > 25000 nM
CCCCCCCC[P+](CCCCCCCC)(CCCCCCCC)CCCCCCCCCCN(CCCCCCCCCC[P+](CCCCCCCC)(CCCCCCCC)CCCCCCCC)CCCCCN(O)C(=O)CCC(=O)NCCCCCN(O)C(=O)CCC(=O)NCCCCCN(O)C(C)=O.Cl.[Cl-].[Cl-] [compound 8, (trioctylphosphine-C10)2-DFO] | 2920 | 134 | 22 | 
CC(=O)N(O)CCCCCNC(=O)CCC(=O)N(O)CCCCCNC(=O)CCC(=O)N(O)CCCCCN(CCCCCCCCCC[P+](Cc1ccccc1)(Cc1ccccc1)Cc1ccccc1)CCCCCCCCCC[P+](Cc1ccccc1)(Cc1ccccc1)Cc1ccccc1.Cl.[Cl-].[Cl-] [compound 7, (tribenzylphosphine-C10)2-DFO] | 2550 | 186 | 14 | 
(tributylamine-C10)2-DFO [compound 3] | 8140 | 73.6 | 111 | 
Oc1ccccc1-c1nc(-c2ccccc2O)n(CCCCCCCCCC[P+](c2ccccc2)(c2ccccc2)c2ccccc2)n1.[Br-] [compound 11, triphenylphosphineBr-C10-norbenzoic-DFX] | 2110 | 5.5 | > 300 | EC50 [3, 9]: 238 nM; P. falciparum selectivity ([3]; relative to fibroblasts): 9; EC50 ([4]; intracellular stages, plaque assay in HFFs, 7 days, n ≥ 3): 5 nM; T. gondii selectivity ([4]; relative to fibroblasts): 422; EC50 ([5]; bloodstream forms, mean, n ≥ 3): 7.5 nM; T. gambiense selectivity ([5]; relative to fibroblasts): 282; mitochondrial membrane potential of T. brucei (relative to untreated) [6]: less than 50%; Mitotracker staining of T. gondii, microscopic observation [2]: strong decrease in Mitotracker staining; EC50 ([7]; axenic amastigotes, mean, n ≥ 3): 132 nM; L. mexicana selectivity ([7]; relative to fibroblasts): 16; morphology of the T. gondii mitochondrion (T. gondii mitochondrion): altered the morphology of the organelle; EC50 [8, 9]: 17.2 nM; B. divergens selectivity ([8]; relative to fibroblasts): 122
O=C(NCCCCCCCC[P+](c1ccccc1)(c1ccccc1)c1ccccc1)c1ccc(-n2nc(-c3ccccc3O)nc2-c2ccccc2O)cc1.[Cl-] [compound 12, triphenylphosphine-C8-DFX] | 1970 | 35.8 | 55 | 
CC(=O)N(O)CCCCCNC(=O)CCC(=O)N(O)CCCCCNC(=O)CCC(=O)N(O)CCCCCNCCCCCCCCCC[P+](c1ccccc1)(c1ccccc1)c1ccccc1 [compound 1, triphenylphosphine-C10-DFO] | > 25000 | 882 |  | 
O=C(O)c1ccc(-n2nc(-c3ccccc3O)nc2-c2ccccc2O)cc1 [compound 17, deferasirox, reference compound] | > 25000 |  |  | EC50 ([1]; Trypanosoma brucei): 8790 nM; T. gondii mitochondrial membrane potential, flow cytometric quantification of Mitotracker labeling ([2]; DFX at 60 nM): no specific impact; morphology of the T. gondii mitochondrion (T. gondii mitochondrion): largely preserved
CC(=O)N(O)CCCCCNC(=O)CCC(=O)N(O)CCCCCNC(=O)CCC(=O)N(O)CCCCCN(CCCCCCCCCCCC[P+](c1ccccc1)(c1ccccc1)c1ccccc1)CCCCCCCCCCCC[P+](c1ccccc1)(c1ccccc1)c1ccccc1.Cl.[Cl-].[Cl-] [compound 6, (triphenylphosphine-C12)2-DFO] | 3630 | 73.1 | 50 | 
(triphenylphosphine-C10-triazole)2-DFO [compound 10] | 4130 | 134 | 31 | 
